Here are results for five molecules from patent US8431748B2, “Low protonation constant hydroxy acids” (BWE I Malmo AB, priority 2006, dated 2013).

Molecules are shown by their SMILES.

Data set [1] in a line: pKa determination by titration with aqueous potassium hydroxide.
Source text: The pKa value was taken as the pH at ½-equivalent volume of potassium hydroxide and corrected against a standard curve prepared from measurements on maleic acid, succinic acid, methacrylic acid, propanoic acid and pentanoic acid.
Data set [2] is described as follows: Solubility of the product in solvents. The data set is classed as physicochemical.
Data set [3] can be described thus: Effect of hydrogen peroxide oxidation of thioether sulphur on pKa. Format: physicochemical. The settings on record: 0.82-2.17 eq. H2O2 (30%), after 2 days at room temperature, average pKa of oxidation products. The procedure:
Five aqueous (35 ml) solutions of GALA (approx 2 mmol) was prepared) and varying amounts of hydrogen peroxide (0.82-2.17 eq., 30%) added. The average pKa value of the oxidation products was assessed after 2 days at room temperature, and the relation between pKa and mol ratio H2O2/S can be seen in FIG. 1.

The mark [4] stands for this setting: in water, pH at 1/2-equivalent volume of 0.1 M KOH, corrected against a standard curve.

The term pKa denotes the pH at which an ionisable group is half protonated. Regarding `CC(CO)(CO)C(=O)O` [DMPA, 2,2-bis-(hydroxymethyl)propanoic acid, reference compound], the pKa in data set [1] (water) is 4.64.

Take `CC(SCCCOCC(O)CO)C(=O)O` (stereo not drawn) [GALA, Glycerol Monoallyl Ether-Thiolactic Acid Adduct]: the “solubility in ethanol/toluene (1/4)” value in data set [2] (ethanol/toluene (1/4)) is recorded as “soluble”. Also, in data set [2], the solubility in hexane result is “not soluble” and the solubility in methanol entry is “soluble”. The solubility in water entry in data set [2] (water) is recorded as “soluble”. For the same molecule, the “reduction of pKa value by addition of hydrogen peroxide” value in data set [3] is listed as “approximately 1 unit”. Besides, in data set [1] (setting [4]), the pKa came to 3.67.

Turning to `O=C(O)CSCCCOCC(O)CO` (stereo not drawn) [GAMA, Glycerol 1-Monoallyl Ether-Mercaptoacetic Acid], in data set [1] (setting [4]), the pKa came to 3.60.

Consider `CCC(CO)(CO)C(=O)O` [DMBA, 2,2-bis-(hydroxymethyl)butanoic acid, reference compound], for which the pKa in data set [1] (water) was 4.55.

On to `CCC(CO)(CO)COCCCSC(C)C(=O)O` (stereo not drawn) [TELA, Trimethyolpropane Monoallyl Ether-Thiolactic Acid Adduct], for which, in data set [2], the solubility in hexane result was “not soluble” and the solubility in methanol result is “soluble”. Further, the solubility in toluene entry in data set [2] (toluene) is recorded as “soluble”.
